Where “and” joins values, the source holds several entries; their conditions need not be identical. Identical values can stand only once. Inconclusive results and toxic doses are left out. The calls were made as follows: active = survival T/C of 150% or more; inactive = T/C below 125% in these data.
Tested on: B6C3F1 mice, intracerebral ependymoblastoma, median survival T/C
Assay: NCI In Vivo Anticancer Drug Screen. Data for tumor model Ependymoblastoma (intracerebral) in B6C3F1 mice
Details: endpoint: median survival time, higher = longer survival
Description: The antitumor activity of compounds was measured in mice bearing transplantable tumors. Survival or tumor size were measured and the results are expressed as the measurement made in the treated group (T) divided by the measurement made in the vehicle treated control group (C). The tumor model used in this assay is Ependymoblastoma (intracerebral) in B6C3F1 mice

[1] = dose: 16.0 mg/kg/injection, schedule: Q01DX005 (ip), vehicle: saline
[2] = dose: 32.0 mg/kg/injection, schedule: Q01DX005 (ip), vehicle: saline
[3] = dose: 64.0 mg/kg/injection, schedule: Q01DX005 (ip), vehicle: saline
[4] = dose: 128.0 mg/kg/injection, schedule: Q01DX005 (ip), vehicle: saline
[5] = dose: 0.5 mg/kg/injection, schedule: Q01DX001 (ip), vehicle: saline
[6] = dose: 0.5 mg/kg/injection, schedule: Q01DX005 (ip), vehicle: saline
[7] = dose: 1.0 mg/kg/injection, schedule: Q01DX001 (ip), vehicle: saline
[8] = dose: 1.0 mg/kg/injection, schedule: Q01DX005 (ip), vehicle: saline
[9] = dose: 2.0 mg/kg/injection, schedule: Q01DX001 (ip), vehicle: saline
[10] = dose: 4.0 mg/kg/injection, schedule: Q01DX001 (ip), vehicle: saline
[11] = dose: 8.0 mg/kg/injection, schedule: Q01DX001 (ip), vehicle: saline
[12] = dose: 50.0 mg/kg/injection, schedule: Q01DX005 (ip), vehicle: Klucel (hydroxypropylcellulose) (HPC)
[13] = dose: 1.0 mg/kg/injection, schedule: Q01DX005 (ip), vehicle: Klucel (hydroxypropylcellulose) (HPC)
[14] = dose: 2.0 mg/kg/injection, schedule: Q01DX005 (ip), vehicle: Klucel (hydroxypropylcellulose) (HPC)
[15] = dose: 4.0 mg/kg/injection, schedule: Q01DX005 (ip), vehicle: Klucel (hydroxypropylcellulose) (HPC)
[16] = dose: 6.25 mg/kg/injection, schedule: Q01DX005 (ip), vehicle: Klucel (hydroxypropylcellulose) (HPC)
[17] = dose: 8.0 mg/kg/injection, schedule: Q01DX005 (ip), vehicle: Klucel (hydroxypropylcellulose) (HPC)
[18] = dose: 32.0 mg/kg/injection, schedule: Q01DX005 (ip), vehicle: saline with Tween-80

Measured: T/C

NCCOCC(N)C(=O)O (stereo not drawn)
inactive: dose: 62.5 mg/kg/injection, schedule: Q01DX005 (ip), vehicle: saline 93 % of control | dose: 125.0 mg/kg/injection, schedule: Q01DX005 (ip), vehicle: saline 95 % of control | dose: 250.0 mg/kg/injection, schedule: Q01DX005 (ip), vehicle: saline 98 % of control | dose: 500.0 mg/kg/injection, schedule: Q01DX005 (ip), vehicle: saline 103 % of control

Nc1ccn(C2OC(COP(=O)(O)O)C(O)C2O)c(=O)n1 (stereo not drawn)
inactive: [1] 96 % of control | [2] 95 % of control | [3] 107 % of control | [4] 112 % of control

N[C@@H](Cc1ccc(N(CCCl)CCCl)cc1)C(=O)O
inactive: [5] 102 % of control | [6] 93 % of control | [7] 98 % of control and 102 % of control and 105 % of control | [8] 107 % of control | [9] 102 % of control and 104 % of control and 110 % of control | dose: 2.0 mg/kg/injection, schedule: Q01DX005 (ip), vehicle: saline 109 % of control | [10] 96 % of control and 103 % of control and 110 % of control | [11] 103 % of control and 113 % of control and 117 % of control

S=P(N1CC1)(N1CC1)N1CC1
active: dose: 8.0 mg/kg/injection, schedule: Q01DX005 (ip), vehicle: saline 169 % of control

CC(=O)OCC1OC(n2ccc(N)nc2=O)C(OC(C)=O)C1OC(C)=O (stereo not drawn)
inactive: [12] 98 % of control | dose: 100.0 mg/kg/injection, schedule: Q01DX005 (ip), vehicle: Klucel (hydroxypropylcellulose) (HPC) 102 % of control | dose: 200.0 mg/kg/injection, schedule: Q01DX005 (ip), vehicle: Klucel (hydroxypropylcellulose) (HPC) 117 % of control

COC1OC(CNC(=O)N(CCCl)N=O)C(O)C(O)C1O (stereo not drawn)
inactive: [5] 103 % of control and 119 % of control | [7] 109 % of control and 86 % of control | [9] 99 % of control and 103 % of control | [10] 105 % of control and 109 % of control | [11] 103 % of control and 111 % of control | dose: 16.0 mg/kg/injection, schedule: Q01DX001 (ip), vehicle: saline 119 % of control

CNc1nc(N(C)C)nc(N(C)C)n1
inactive: [1] 98 % of control and 111 % of control | [2] 101 % of control | [3] 104 % of control and 115 % of control | [4] 96 % of control and 111 % of control

O=C1NC2(CCCCC2)C(=O)N1CCN(CCCl)CCCl
inactive: [13] 116 % of control | [8] 99 % of control and 103 % of control and 107 % of control | dose: 1.5 mg/kg/injection, schedule: Q01DX005 (ip), vehicle: Klucel (hydroxypropylcellulose) (HPC) 101 % of control | dose: 1.56 mg/kg/injection, schedule: Q01DX005 (ip), vehicle: Klucel (hydroxypropylcellulose) (HPC) 100 % of control | [14] 99 % of control | dose: 2.5 mg/kg/injection, schedule: Q01DX005 (ip), vehicle: other 97 % of control | dose: 2.5 mg/kg/injection, schedule: Q01DX005 (ip), vehicle: saline 100 % of control | dose: 3.0 mg/kg/injection, schedule: Q01DX005 (ip), vehicle: Klucel (hydroxypropylcellulose) (HPC) 110 % of control | dose: 3.12 mg/kg/injection, schedule: Q01DX005 (ip), vehicle: Klucel (hydroxypropylcellulose) (HPC) 101 % of control | [15] 117 % of control | dose: 5.0 mg/kg/injection, schedule: Q01DX005 (ip), vehicle: other 112 % of control | dose: 5.0 mg/kg/injection, schedule: Q01DX005 (ip), vehicle: saline 98 % of control | dose: 6.0 mg/kg/injection, schedule: Q01DX005 (ip), vehicle: Klucel (hydroxypropylcellulose) (HPC) 111 % of control | dose: 6.0 mg/kg/injection, schedule: Q01DX005 (oral), vehicle: Klucel (hydroxypropylcellulose) (HPC) 105 % of control and 88 % of control | [16] 105 % of control | [17] 112 % of control | dose: 10.0 mg/kg/injection, schedule: Q01DX005 (ip), vehicle: saline 98 % of control | dose: 12.0 mg/kg/injection, schedule: Q01DX005 (oral), vehicle: Klucel (hydroxypropylcellulose) (HPC) 87 % of control | dose: 24.0 mg/kg/injection, schedule: Q01DX005 (oral), vehicle: Klucel (hydroxypropylcellulose) (HPC) 92 % of control and 100 % of control | dose: 48.0 mg/kg/injection, schedule: Q01DX005 (oral), vehicle: Klucel (hydroxypropylcellulose) (HPC) 101 % of control | dose: 96.0 mg/kg/injection, schedule: Q01DX005 (oral), vehicle: Klucel (hydroxypropylcellulose) (HPC) 97 % of control

O=CC(NC(=O)N(CCCl)N=O)C(O)C(O)C(O)CO (stereo not drawn)
active: dose: 4.0 mg/kg/injection, schedule: Q01DX009 (ip), vehicle: saline 195 % of control | dose: 25.0 mg/kg/injection, schedule: Q01DX001 (ip), vehicle: saline 157 % of control
inactive: dose: 0.12 mg/kg/injection, schedule: Q01DX005 (ip), vehicle: saline 97 % of control and 99 % of control and 108 % of control | dose: 0.13 mg/kg/injection, schedule: Q01DX005 (ip), vehicle: saline 91 % of control and 93 % of control | dose: 1.0 mg/kg/injection, schedule: Q01DX001 (ip), vehicle: Klucel (hydroxypropylcellulose) (HPC) 93 % of control and 104 % of control and 107 % of control | [13] 108 % of control | dose: 2.0 mg/kg/injection, schedule: Q01DX001 (ip), vehicle: Klucel (hydroxypropylcellulose) (HPC) 99 % of control and 103 % of control and 108 % of control | [14] 119 % of control | dose: 3.13 mg/kg/injection, schedule: Q01DX001 (ip), vehicle: saline 115 % of control | dose: 4.0 mg/kg/injection, schedule: Q01DX001 (ip), vehicle: Klucel (hydroxypropylcellulose) (HPC) 100 % of control and 107 % of control and 108 % of control | dose: 6.25 mg/kg/injection, schedule: Q01DX001 (ip), vehicle: saline 122 % of control | dose: 8.0 mg/kg/injection, schedule: Q01DX001 (ip), vehicle: Klucel (hydroxypropylcellulose) (HPC) 103 % of control and 110 % of control and 113 % of control | dose: 16.0 mg/kg/injection, schedule: Q01DX001 (ip), vehicle: Klucel (hydroxypropylcellulose) (HPC) 111 % of control and 115 % of control and 119 % of control

CCOC(=O)C(CC(C)C)NC(=O)C(Cc1ccc(N(CCCl)CCCl)cc1)NC(C)=O (stereo not drawn)
active: dose: 64.0 mg/kg/injection, schedule: Q01DX005 (ip), vehicle: saline with Tween-80 163 % of control
inactive: [13] 87 % of control | [14] 95 % of control | [15] 97 % of control and 106 % of control and 113 % of control | dose: 4.0 mg/kg/injection, schedule: Q01DX005 (ip), vehicle: saline with Tween-80 104 % of control and 108 % of control | [17] 97 % of control and 102 % of control and 107 % of control | dose: 8.0 mg/kg/injection, schedule: Q01DX005 (ip), vehicle: saline with Tween-80 101 % of control and 104 % of control | dose: 16.0 mg/kg/injection, schedule: Q01DX005 (ip), vehicle: Klucel (hydroxypropylcellulose) (HPC) 100 % of control and 102 % of control and 105 % of control | dose: 16.0 mg/kg/injection, schedule: Q01DX005 (ip), vehicle: saline with Tween-80 98 % of control and 105 % of control | dose: 32.0 mg/kg/injection, schedule: Q01DX005 (ip), vehicle: Klucel (hydroxypropylcellulose) (HPC) 105 % of control and 109 % of control and 110 % of control | [18] 106 % of control | dose: 64.0 mg/kg/injection, schedule: Q01DX005 (ip), vehicle: Klucel (hydroxypropylcellulose) (HPC) 115 % of control

Nc1ccn(C2OC(COC(=O)C34CC5CC(CC(C5)C3)C4)C(O)C2O)c(=O)n1 (stereo not drawn)
inactive: [16] 98 % of control and 105 % of control | dose: 12.5 mg/kg/injection, schedule: Q01DX005 (ip), vehicle: Klucel (hydroxypropylcellulose) (HPC) 100 % of control and 105 % of control | dose: 25.0 mg/kg/injection, schedule: Q01DX005 (ip), vehicle: Klucel (hydroxypropylcellulose) (HPC) 104 % of control and 116 % of control | [12] 109 % of control

O=C1C(NCC(O)CO)=C(N2CC2)C(=O)C(NCC(O)CO)=C1N1CC1 (stereo not drawn)
inactive: [6] 117 % of control | [8] 116 % of control

ClC(Cl)=C(Cl)Cl
inactive: dose: 25.0 mg/kg/injection, schedule: Q01DX005 (ip), vehicle: other 110 % of control and 122 % of control | dose: 50.0 mg/kg/injection, schedule: Q01DX005 (ip), vehicle: other 100 % of control and 113 % of control | dose: 100.0 mg/kg/injection, schedule: Q01DX005 (ip), vehicle: other 101 % of control and 105 % of control | dose: 200.0 mg/kg/injection, schedule: Q01DX005 (ip), vehicle: other 93 % of control and 97 % of control

C#CCN(C)/N=N/c1nc[nH]c1C(N)=O
active: [18] 150 % of control | dose: 128.0 mg/kg/injection, schedule: Q01DX005 (ip), vehicle: saline with Tween-80 157 % of control
